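Results reflect a 48-hour exposure of cells in 96-well plates to compound at five concentrations. GI50 is the concentration that inhibits growth by half. TGI marks complete inhibition of growth.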
How the values were obtained:
Experiment in all cases: DTP human tumour cell line panel, 48 h
[1] = test system: HCT-15 colon
[2] = test system: IGROV1 ovarian
[3] = test system: K-562 leukemia
[4] = test system: KM20L2 colon
[5] = test system: NCI-H522 lung
[6] = test system: OVCAR-4 ovarian
[7] = test system: SF-539 CNS
[8] = test system: SN12C renal
[9] = test system: SNB-19 CNS
[10] = test system: U251 CNS
[11] = test system: DMS 114 small cell lung

Row | SMILES | TGI [1] | TGI [2] | TGI [3] | TGI [4] | TGI [5] | TGI [6] | TGI [7] | TGI [8] | TGI [9] | TGI [10] | TGI [11] | GI50 [1] | GI50 [2] | GI50 [3] | GI50 [5] | GI50 [6] | GI50 [7] | GI50 [8] | GI50 [9] | GI50 [10]
1 | CC1(c2ccc[n+](Cc3ccccc3)c2)OCCO1 | > 100 µM | > 100 µM | > 100 µM | > 100 µM | > 100 µM | > 100 µM | > 100 µM | > 100 µM | > 100 µM | > 100 µM | – | – | – | – | – | – | – | – | – | –
2 | COC(=O)[C@H]1CO[C@H]2C/C(C)=C/CC/C(C)=C/CC[C@@]3(C)O[C@@H]3C[C@H]21 | 19.9 µM | > 50 µM | 16.1 µM | – | 18.8 µM | > 50 µM | > 50 µM | 24.3 µM | > 50 µM | > 50 µM | – | – | – | – | – | – | – | – | – | –
3 | CCCC(=O)NC(Nc1ccc(S(=O)(=O)Nc2nc(C)cc(C)n2)cc1)(C(F)(F)F)C(F)(F)F | > 100 µM | > 100 µM | > 100 µM | – | > 100 µM | > 100 µM | > 100 µM | > 100 µM | > 100 µM | > 100 µM | – | – | – | – | – | – | – | – | – | –
4 | N#CC(c1nc2ccccc2nc1Cl)S(=O)(=O)c1ccccc1 (stereo unspecified) | > 100 µM | – | > 100 µM | > 100 µM | > 100 µM | > 100 µM | > 100 µM | > 100 µM | > 100 µM | > 100 µM | > 100 µM | – | – | – | – | – | – | – | – | –
5 | O=c1cc(N2CCN(c3cc(=O)n4ccccc4n3)CC2)oc2ccccc12 | > 100 µM | > 100 µM | > 100 µM | – | > 100 µM | > 100 µM | > 100 µM | > 100 µM | > 100 µM | > 100 µM | – | – | – | – | – | – | – | – | – | –
6 | COc1ccc2c(c1)c(CC(=O)O)c(C)n2C(=O)c1ccc(Cl)cc1 | > 100 µM | > 100 µM | > 100 µM | – | > 100 µM | > 100 µM | > 100 µM | > 100 µM | > 100 µM | > 100 µM | – | – | – | – | – | – | – | – | – | –
7 | COc1ccccc1NC(=O)CC(=O)N1N=C(C)C(N=Nc2ccc(C(=O)O)cc2)C1=O (stereo unspecified) | > 100 µM | > 100 µM | > 100 µM | – | > 100 µM | > 100 µM | > 100 µM | > 100 µM | > 100 µM | > 100 µM | – | – | – | – | – | – | – | – | – | –
8 | Cc1cc(N2CCCC2)nc(N(CCNc2ccnc3cc(Cl)ccc23)Cc2ccco2)n1 | > 100 µM | > 100 µM | > 100 µM | – | > 100 µM | > 100 µM | 10.4 µM | > 100 µM | 70.2 µM | 21.4 µM | – | 3.19 µM | 2.5 µM | 2.26 µM | 3.59 µM | 3.22 µM | 3.27 µM | 3.88 µM | 5.67 µM | 3.15 µM
9 | COc1ccc(C2=NN(c3ccccc3)C[N+](c3ccc(OC)cc3)=N2)cc1 | > 100 µM | > 100 µM | 63.1 µM | > 100 µM | 30 µM | 64 µM | – | > 100 µM | 92.1 µM | 49.8 µM | 64 µM | – | – | – | – | – | – | – | – | –
10 | CCOP(=O)(OCC)C1CC(n2cc(C)c(=O)[nH]c2=O)OC1CO (stereo unspecified) | > 100 µM | > 100 µM | > 100 µM | – | > 100 µM | > 100 µM | > 100 µM | > 100 µM | > 100 µM | > 100 µM | – | – | – | – | – | – | – | – | – | –
11 | CC[N+]1(C)CCC(O)(c2ccc(Cl)c(Cl)c2)C(C(=O)c2ccc(Cl)c(Cl)c2)C1 (stereo unspecified) | > 10 µM | > 10 µM | > 10 µM | – | 7.44 µM | > 10 µM | > 10 µM | > 10 µM | > 10 µM | > 10 µM | – | – | – | – | – | – | – | – | – | –
12 | CC(=O)c1c(C(F)(F)F)n([O-])c2cc(Cl)c(Cl)cc2[n+]1=O | 0.759 µM | 0.498 µM | 3.42 µM | – | 0.368 µM | 2.73 µM | 2.46 µM | 2.69 µM | 2.27 µM | 2.63 µM | – | – | – | – | – | – | – | – | – | –
13 | CCOc1cc(C2CC(c3ccc(NS(=O)(=O)c4cc([N+](=O)[O-])ccc4C)cc3)=NN2c2ccc([N+](=O)[O-])cc2[N+](=O)[O-])ccc1O (stereo unspecified) | > 100 µM | 46.2 µM | > 100 µM | – | 34.2 µM | 11 µM | 25.5 µM | 9.97 µM | 34.5 µM | 29.2 µM | – | – | – | – | – | – | – | – | – | –
14 | CCN(CC)c1ccc2cc(C(=O)Nc3cccc4ccccc34)c(=N)oc2c1 | > 100 µM | > 100 µM | > 100 µM | – | > 100 µM | > 100 µM | > 100 µM | > 100 µM | > 100 µM | > 100 µM | – | – | – | – | – | – | – | – | – | –
15 | CN1CCN(CCCBr)CC1 | > 100 µM | > 100 µM | > 100 µM | – | > 100 µM | > 100 µM | > 100 µM | > 100 µM | > 100 µM | > 100 µM | – | – | – | – | – | – | – | – | – | –
16 | CCOC(=O)c1cc2c(C(=O)c3ccc([N+](=O)[O-])cc3)c(C(C)=O)ccc2[nH]1 | > 100 µM | > 100 µM | > 100 µM | – | 36.5 µM | > 100 µM | > 100 µM | > 100 µM | 87.9 µM | 32.3 µM | – | – | – | – | – | – | – | – | – | –
17 | O=c1oc2ccccc2cc1-c1cn2cc(Cl)ccc2n1 | 20.7 µM | 17.7 µM | > 100 µM | – | 0.722 µM | 12.8 µM | 22.2 µM | 22.4 µM | 3.66 µM | 13.9 µM | – | – | – | – | – | – | – | – | – | –
18 | CCOC(=O)c1c(N2CCCC2)ncn(Cc2ccccc2)c1=S | > 100 µM | > 100 µM | > 100 µM | – | > 100 µM | > 100 µM | > 100 µM | > 100 µM | > 100 µM | > 100 µM | – | – | – | – | – | – | – | – | – | –
19 | COc1ccc(NC(C)=O)cc1N1C(=O)/C(=C\c2cc(OC)c(OC)c(OC)c2)SC1c1ccccc1 (stereo unspecified) | > 100 µM | > 100 µM | > 100 µM | – | > 100 µM | > 100 µM | > 100 µM | > 100 µM | > 100 µM | > 100 µM | – | – | – | – | – | – | – | – | – | –
20 | COc1ccc(-c2c(C#N)c(S)n(NS(=O)(=O)c3ccc(C)cc3)c(=O)c2C#N)cc1 | 32.4 µM | 33.9 µM | 47.2 µM | – | 33.7 µM | > 100 µM | 29.8 µM | 34.8 µM | > 100 µM | > 100 µM | – | – | – | – | – | – | – | – | – | –
21 | OC(CCNCc1ccccc1)c1ccc2ccccc2c1 (stereo unspecified) | 38.8 µM | 30.6 µM | 50.9 µM | – | 35 µM | 72.9 µM | 31.9 µM | 72.2 µM | 47.9 µM | 30.6 µM | – | – | – | – | – | – | – | – | – | –

From PubChem BioAssay (NCI)
